Starred links: 1 amine or outer side, 2 acyl side, 3 side chain; linkers in the order of their positions; H or OH if unused. Positions of bridges follow the written chain, without caps; N, C: chain ends. Non-standard residues stand in square brackets, D forms with d. Residues, ends and D or L forms follow the SMILES beside them. *: point of attachment. hPhe(3,5-F2-4-CF3) = N[C@@H](CCc1cc(F)c(C(F)(F)F)c(F)c1)C(=O)O; hPhe(3-Cl-4-CF3) = N[C@@H](CCc1ccc(C(F)(F)F)c(Cl)c1)C(=O)O; NMePhe(4-CF3) = CN[C@@H](Cc1ccc(C(F)(F)F)cc1)C(=O)O; hPhe(4-CF3) = N[C@@H](CCc1ccc(C(F)(F)F)cc1)C(=O)O; NMePhe(4-Cl) = CN[C@@H](Cc1ccc(Cl)cc1)C(=O)O; NMedβ3hAla = C[C@H](CC(=O)[*:2])N(C)[*:1]; X22 = O=C([C@@H]1Cc2ccccc2N1[*:1])[*:2]; NMeGly(cPent) = CN[C@H](C(=O)O)C1CCCC1; Pro(4,4-F2) = O=C(O)[C@@H]1CC(F)(F)CN1; NMeCha = CN[C@@H](CC1CCCCC1)C(=O)O; NMeChg = CN[C@H](C(=O)O)C1CCCCC1; NMeD = CN[C@@H](CC(=O)O)C(=O)O; NMeL = CN[C@@H](CC(C)C)C(=O)O; NMehSer = CN[C@@H](CCO)C(=O)O; NMeV = CN[C@H](C(=O)O)C(C)C; d(β3hA) = C[C@@H](N)CC(=O)O; NMeS = CN[C@@H](CO)C(=O)O; Pip = O=C(O)[C@@H]1CCCCN1; dPip = O=C(O)[C@H]1CCCCN1; NMeA = CN[C@@H](C)C(=O)O; Piperidide = C1CCN(*)CC1; Pyrrolidide = C1CCN(*)C1; Ac5c = NC1(C(=O)O)CCCC1; Aze = O=C(O)[C@@H]1CCN1; Thp = NC1(C(=O)O)CCOCC1; Ac4c = NC1(C(=O)O)CCC1; Sar = CNCC(=O)O; Propyl = CCC*

By IC50 is commonly meant the midpoint of a concentration-inhibition curve.

The target of the test is T1, Kras and SOS1 (biotin-tagged human Kras loaded with GDP, His-tagged human SOS1) (Homo sapiens, UniProt P01116, G12D).
T1 construct: made in house; host or cells: E. coli (stated for Kras only)
T1 sequence (P01116 1-188 isoform P01116-2 G12D): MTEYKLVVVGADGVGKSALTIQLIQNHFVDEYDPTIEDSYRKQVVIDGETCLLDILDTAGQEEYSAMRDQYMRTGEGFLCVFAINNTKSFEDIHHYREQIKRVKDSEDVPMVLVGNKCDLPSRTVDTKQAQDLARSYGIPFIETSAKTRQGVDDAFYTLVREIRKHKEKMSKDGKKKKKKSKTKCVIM
Description: Protein-protein interaction inhibition between Kras and SOS1 (KrasGl2D-SOS PPI) using AlphaScreen. In kind it is binding. The settings on record: AlphaScreen; biotin-tagged human Kras loaded with GDP, His-tagged human SOS1; read-out: KRAS G12D-SOS PPI IC50. The procedure, abridged: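 AlphaScreen format: Ni donor beads capture His-SOS1, streptavidin acceptor beads capture biotinylated Kras (E. coli-expressed, GDP-loaded post-purification). Excite 680 nm, read 520-620 nm.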
For orientation: Alpha assays give light when donor and acceptor beads are brought close together.
In the case of `CC[C@H](C)[C@@H]1NC(=O)[C@H](CC(C)C)N(C)C(=O)C[C@@H](C(=O)N2CCCCC2)N(C)C(=O)[C@H](C2CCCCC2)N(C)C(=O)C2(CCCC2)NC(=O)[C@@H]2Cc3ccccc3N2C(=O)[C@H](CCc2ccc(C(F)(F)F)c(Cl)c2)NC(=O)CN(C)C(=O)[C@H](CC2CCCCC2)N(C)C(=O)[C@@H]2CCN2C(=O)CN(C)C1=O` [Compound 725] ([NMeL]I[Sar][Aze][NMeCha][Sar][hPhe(3-Cl-4-CF3)][X22][Ac5c][NMeChg][NMeD]-Piperidide; lactam N-11), the IC50 stood at 7.8 nM.
Under `CC[C@H](C)[C@@H]1NC(=O)[C@H](CC(C)C)N(C)C(=O)C[C@@H](C(=O)N2CCCCC2)N(C)C(=O)[C@H](C2CCCCC2)N(C)C(=O)C2(CCCC2)NC(=O)[C@@H]2CCCCN2C(=O)[C@H](CCc2ccc(C(F)(F)F)c(Cl)c2)NC(=O)CN(C)C(=O)[C@H](CC2CCCCC2)N(C)C(=O)CN(C)C(=O)CN(C)C1=O` [Compound 728] ([NMeL]I[Sar][Sar][NMeCha][Sar][hPhe(3-Cl-4-CF3)][Pip][Ac5c][NMeChg][NMeD]-Piperidide; lactam N-11) stands 16 nM; under `CC[C@H](C)[C@@H]1NC(=O)[C@H](CC(C)C)N(C)C(=O)C[C@@H](C(=O)N(C)C)N(C)C(=O)[C@H](C2CCCC2)N(C)C(=O)[C@H](C)NC(=O)[C@@H](C)NC(=O)[C@H](CCc2ccc(C(F)(F)F)c(Cl)c2)NC(=O)CN(C)C(=O)[C@H](CC2CCCCC2)N(C)C(=O)[C@@H]2CCN2C(=O)[C@H](C)N(C)C1=O` [Compound 736] ([NMeL]I[NMeA][Aze][NMeCha][Sar][hPhe(3-Cl-4-CF3)][dA]A[NMeGly(cPent)][NMeD]-NMe2; lactam N-11), 37 nM.
As for `CC[C@H](C)[C@@H]1NC(=O)[C@H](CC(C)C)N(C)C(=O)C[C@@H](C)N(C)C(=O)[C@H](C2CCCCC2)N(C)C(=O)C2(CCC2)NC(=O)[C@@H]2CC(F)(F)CN2C(=O)[C@H](CCc2cc(F)c(C(F)(F)F)c(F)c2)NC(=O)CN(C)C(=O)[C@H](CC2CCCCC2)N(C)C(=O)CN(C)C(=O)CN(C)C1=O` [Compound 738] (cyclo([Ac4c][NMeChg][NMedβ3hAla][NMeL]I[Sar][Sar][NMeCha][Sar][hPhe(3,5-F2-4-CF3)][Pro(4,4-F2)])), the figure is 15 nM.
As for `CCCOC[C@H]1C(=O)N(C)[C@@H](CC(C)C)C(=O)N[C@H](C(=O)N2CCCC2)CC(=O)N(C)[C@@H](C)C(=O)N[C@@H]([C@@H](C)CC)C(=O)N(C)CC(=O)N(C)CC(=O)N(C)[C@@H](Cc2ccc(Cl)cc2)C(=O)N(C)CC(=O)N[C@@H](CCc2ccc(C(F)(F)F)cc2)C(=O)N[C@@H](CC(C)C)C(=O)N1C` [Compound 739] ([NMeA]I[Sar][Sar][NMePhe(4-Cl)][Sar][hPhe(4-CF3)]L[NMeS](Propyl)[NMeL]D-Pyrrolidide; lactam N-11), the figure is 36 nM.
Take `CC[C@H](C)[C@@H]1NC(=O)[C@H](CC(C)C)N(C)C(=O)C[C@@H](C)N(C)C(=O)[C@H](CC(C)C)N(C)C(=O)C2(CCOCC2)NC(=O)[C@@H]2CCCN2C(=O)[C@H](CCc2ccc(C(F)(F)F)c(Cl)c2)NC(=O)CN(C)C(=O)[C@H](CC2CCCCC2)N(C)C(=O)CN(C)C(=O)CN(C)C1=O` [Compound 742] (cyclo(I[Sar][Sar][NMeCha][Sar][hPhe(3-Cl-4-CF3)]P[Thp][NMeL][NMedβ3hAla][NMeL])): the IC50 is 17 nM.
As for `CC[C@H](C)[C@@H]1NC(=O)[C@H](CC(C)C)N(C)C(=O)C[C@@H](C(=O)N2CCCCC2)N(C)C(=O)[C@H](CCOC)N(C)C(=O)C2(CCCC2)NC(=O)[C@@H]2CCCN2C(=O)[C@H](CCc2ccc(C(F)(F)F)c(Cl)c2)NC(=O)CN(C)C(=O)[C@H](CC2CCCCC2)N(C)C(=O)CN(C)C(=O)CN(C)C1=O` [Compound 744] ([NMeL]I[Sar][Sar][NMeCha][Sar][hPhe(3-Cl-4-CF3)]P[Ac5c][NMehSer](Me)[NMeD]-Piperidide; lactam N-11), the figure is 7.5 nM; as for `CC[C@H](C)[C@@H]1NC(=O)[C@H](C)N(C)C(=O)C[C@@H](C)NC(=O)[C@H](C(C)C)N(C)C(=O)C2(CCCC2)NC(=O)[C@@H]2CCCN2C(=O)[C@H](CCc2ccc(C(F)(F)F)c(Cl)c2)NC(=O)[C@H]2CCCCN2C(=O)[C@H](CC2CCCCC2)N(C)C(=O)CN(C)C(=O)CN(C)C1=O` [Compound 746] (cyclo([Ac5c][NMeV][d(β3hA)][NMeA]I[Sar][Sar][NMeCha][dPip][hPhe(3-Cl-4-CF3)]P)), 130 nM; as for `CC[C@H](C)[C@@H]1NC(=O)[C@H](CC(C)C)N(C)C(=O)C[C@@H](C)N(C)C(=O)[C@H](C2CCCCC2)N(C)C(=O)C2(CCC2)NC(=O)[C@@H]2CC(F)(F)CN2C(=O)[C@H](CCc2ccc(C(F)(F)F)c(Cl)c2)NC(=O)CN(C)C(=O)[C@H](Cc2ccc(C(F)(F)F)cc2)N(C)C(=O)CN(C)C(=O)CN(C)C1=O` [Compound 750] (cyclo([Ac4c][NMeChg][NMedβ3hAla][NMeL]I[Sar][Sar][NMePhe(4-CF3)][Sar][hPhe(3-Cl-4-CF3)][Pro(4,4-F2)])), 28 nM.

The record behind these values is patent US12371454B2, “Cyclic peptide compound having Kras inhibitory action” (priority 2019, dated 2025).
